The record followed here is the NIST ThermoML archive (doi:10.1016/j.jct.2012.01.016).

SMILES strings stand for the structures. “And” between values parts separate entries of the source, which are not always exact repeats. Equal entries are not always repeated.

This series is described as follows: activity coefficient (dimensionless); of the first substance listed, at infinite dilution; xn = mol fraction of the nth substance listed. The settings on record: Liquid, Headspace solid phase microextraction, x1 = 0.

Regarding `Cc1ccccc1C` [1,2-dimethylbenzene] + O=Cc1ccco1, the activity coefficient (298.15 K) was 4.12 and 3.74; the activity coefficient (308.15 K) was 4.44 and 3.55; the activity coefficient (318.15 K) is 6.77 and 4.61.

For `c1ccccc1` [benzene] + O=Cc1ccco1, the activity coefficient (298.15 K) was 2.61 and 2.45; the activity coefficient (308.15 K) is 2.93 and 2.4; the activity coefficient (318.15 K) is 3.87 and 2.89.

In the case of `C1CCCCC1` [cyclohexane] + O=Cc1ccco1, the activity coefficient was 15.7 and 15.5 (298.15 K); 13.5 and 12.9 (308.15 K); 12 and 10.9 (318.15 K).

`C1CCCC1` [cyclopentane] + O=Cc1ccco1: the activity coefficient is, setting by setting: (298.15 K) 11.6 and 11.4; (308.15 K) 10.7 and 10.1; (318.15 K) 10.4 and 9.3.

Take `CCc1ccccc1` [ethylbenzene] + O=Cc1ccco1: the activity coefficient by setting is: (298.15 K) 4.84 and 4.52; (308.15 K) 5.02 and 4.35; (318.15 K) 7.21 and 5.25.

For the compound `CCCCCCC` [heptane] + O=Cc1ccco1, the activity coefficient is, setting by setting: (298.15 K) 32 and 31.6; (308.15 K) 30.8 and 29.6; (318.15 K) 28.3 and 26.4.

Turning to `CCCCCC` [hexane] + O=Cc1ccco1, the activity coefficient was 25.6 and 25.3 (298.15 K); 23.6 and 22.8 (308.15 K); 22.2 and 21.2 (318.15 K).

With `CCCCC` [pentane] + O=Cc1ccco1, the activity coefficient (298.15 K) was 20.8 and 20.4; the activity coefficient (308.15 K) is 17.9 and 16.9; the activity coefficient (318.15 K) was 16.8 and 15.

On to `Cc1ccccc1` [toluene] + O=Cc1ccco1, for which the activity coefficient is, setting by setting: (298.15 K) 3.72 and 3.46; (308.15 K) 3.79 and 3.33; (318.15 K) 5.3 and 3.8.
